Measured values: ChEMBL document CHEMBL4616702 (ACS Med Chem Lett, 2020)

Tests used:
[1] = Half life in mouse liver microsomes in presence of NADPH by LC/MS/MS method; type: ADME, Microsome; settings: for half-life: liver microsomes
[2] = Half life in human liver microsomes in presence of NADPH by LC/MS/MS method; type: ADME, Microsome
[3] = Half life in rat liver microsomes in presence of NADPH by LC/MS/MS metho; type: ADME, Microsome; settings: for t1/2: microsomes; for half-life: liver microsomes
[4] = Cmax in Balb/c mouse at 10 mg/kg, po; type: ADME, organism-based; set-up: dose 10 mg/kg, route oral; settings: in vivo
[5] = AUC (0 to 24 hrs) in Balb/c mouse at 10 mg/kg, po; type: ADME, organism-based; set-up: dose 10 mg/kg, time < 24 hr, route oral; settings: in vivo
[6] = Drug concentration in Balb/c mouse at 10 mg/kg, po measured upto 24 hrs; type: ADME, organism-based; settings: in vivo, read-out: Drug uptake

half-life [1]	half-life [2]	t1/2 [3]	half-life [3]	t1/2 ([1]; microsomes)	Cmax [4]	AUC(0-t) at 24 h [5]	concentration at 24 h [6]	SMILES
> 120 min	> 120 min	> 120 min	–	–	–	–	–	C[C@H]1C[C@@H](C(=O)N2CC[C@@]3(S(=O)(=O)c4ccc(F)cc4)c4ccc(C(F)(C(F)(F)F)C(F)(F)F)cc4CC[C@@H]23)CCS1(=O)=O (stereo in doubt; 3)
> 120 min	> 120 min	–	> 120 min	–	–	–	–	O=C(O)[C@H]1CC[C@H](C(=O)N2CC[C@@]3(S(=O)(=O)c4ccc(F)cc4)c4ccc(C(F)(C(F)(F)F)C(F)(F)F)cc4CC[C@@H]23)CC1
> 120 min	> 120 min	–	> 120 min	–	–	–	–	C[C@@H]1C[C@H](C(=O)O)CC[C@H]1C(=O)N1CC[C@@]2(S(=O)(=O)c3ccc(F)cc3)c3ccc(C(F)(C(F)(F)F)C(F)(F)F)cc3CC[C@@H]12
> 120 min	> 120 min	–	> 120 min	–	–	–	–	O=C(N1CC[C@@]2(S(=O)(=O)c3ccc(F)cc3)c3ccc(C(F)(C(F)(F)F)C(F)(F)F)cc3CC[C@@H]12)C1(O)CCS(=O)(=O)CC1
–	–	33 min	–	98 min	–	–	–	C[C@H]1C[C@@H](C(=O)N2CC[C@@]3(S(=O)(=O)c4ccc(F)cc4)c4ccc(C(F)(C(F)(F)F)C(F)(F)F)cc4CC[C@@H]23)CCS1(=O)=O (stereo in doubt; 4)
> 120 min	> 120 min	–	107 min	–	–	–	–	C[C@H]1C[C@H](C(=O)O)CC[C@H]1C(=O)N1CC[C@@]2(S(=O)(=O)c3cccc(F)c3)c3ccc(C(F)(C(F)(F)F)C(F)(F)F)cc3CC[C@@H]12
> 120 min	> 120 min	–	> 120 min	–	12 µM	72 µM·h	780 nM	C[C@H]1C[C@H](C(=O)N2CC[C@@]3(S(=O)(=O)c4cccc(F)c4)c4ccc(C(F)(C(F)(F)F)C(F)(F)F)cc4CC[C@@H]23)CC[C@H]1C(=O)O
> 120 min	> 120 min	–	73 min	–	9 µM	134 µM·h	2200 nM	C[C@@H]1C[C@H](C(=O)N2CC[C@@]3(S(=O)(=O)c4ccc(F)cc4)c4ccc(C(F)(C(F)(F)F)C(F)(F)F)cc4CC[C@@H]23)CC[C@H]1C(=O)O
